Measurements: patent US11473153B2, “Device and methods of using device for separation of bacteria from complex samples” (priority 2014, dated 2022)
Like-named read-outs stand apart in the source and are kept apart here.

Experiments:
[1] = tested on: bacteria; details: cited from earlier work
[2] = tested on: S. typhimurium; experiment: Four-channel membrane microfluidic chip, separation by chemoattractant (FIG. 9B); assay type: cell-based
Text: FIG. 9A depicts a diagram of a microfluidic chip with four channels that overlap in the vertical direction, with each channel being separated by a semipermeable membrane. Each channel has an inlet/outlet on either end of the chip, each channel can be filled using regular pipettes. The four channels overlap in the vertical direction to maximize contact are amongst channels and optimizes the time required for the chemical gradients to form. The membranes between the channels prevent fluid flow while allowing the chemical gradients to form and bacteria to migrate between the channels. […] The contents of each channel was extracted after approximately 30 minutes and the bacterial density measured using a cell counter (left hand bar in each column). […] Control experiments were also performed to evaluate random dispersion of bacteria to channels 1 and 3 filled with buffer; very few of the bacteria moved away from channel 2 without the present of the chemoattractant (middle bars in each column).

[3] = tested on: S. typhimurium; experiment: Microliter-scale sample chamber device, separation run (FIG. 12); assay type: cell-based; details: 30 minutes
Experimental: Experimental and control separation runs were performed in the device and results recorded as disclosed below. FIG. 12 depicts an experimental run on the device in which 2 mM of alpha-methylaspartate (chemo-attractant) was diluted in chemotaxis buffer was introduced in the extraction chamber. […] Deionized water was introduced in the repellent chamber. After 30 minutes, the contents of each chamber was recovered and the amount of bacteria in each chamber counted.

[4] = tested on: unspecific bacteria grown from dirt
[5] = tested on: S. typhimurium; details: Eth20%/Media + Salmonella/Media, 1.5 ml device
[6] = tested on: E. coli O157H7; details: Eth20%/GroundMeat + O157H7/Media, 30 min, 1.5 ml device

SMILES	Chemoattractant (bacteria for which the substance is one) [1]	Chemorepellent (bacteria for which the substance is one) [1]	further results
O=C(O)c1ccccc1 [Benzoate]	P. putida	E. coli, S. typhimurium	–
[Ni+2] [Ni^2]	(no effect on S. typhimurium)	E. coli	–
CC(N)(CC(=O)O)C(=O)O (stereo not drawn) [α-methyl aspartate]	–	–	bacterial density per channel (cell counter) ([2]; 2 mM in channel 1, S. typhimurium in channel 2, buffer in channel 3, approximately 30 minutes): most bacteria crossed over to the channel containing maximal concentration of chemoattractant; bacterial density per channel, gravity control ([2]; buffer and chemoattractant introduced through the opposite channels): the results were the same; concentration of bacteria in the extraction chamber normalized to the initial concentration ([3]; 2 mM in chemotaxis buffer in extraction chamber, sample chamber about 110 μL): about 2 times higher than the initial concentration; bacteria in the repellent chamber ([3]; 2 mM in extraction chamber, deionized water in repellent chamber): no bacteria were found
[Co+2] [Co^2+]	(no effect on S. typhimurium)	E. coli	–
OC[C@H]1O[C@H](O[C@H]2[C@H](O)[C@@H](O)C(O)O[C@@H]2CO)[C@H](O)[C@@H](O)[C@@H]1O (mixture of isomers) [Maltose]	E. coli	(no effect on S. typhimurium)	–
O=C(O)CC(O)(CC(=O)O)C(=O)O [Citrate]	S. typhimurium	(no effect on E. coli)	–
O [OH^−]	R. sphaeroids	E. coli, C. vinosum	–
Oc1ccccc1 [Phenol]	E. coli	S. typhimurium	–
CC(C)[C@H](N)C(=O)O [Valine]	B. subtilis	E. coli, S. typhimurium	–
N[C@@H](Cc1c[nH]c2ccccc12)C(=O)O [Tryptophan]	B. subtilis, C. vinosum	E. coli, S. typhimurium	–
CC(C)C[C@H](N)C(=O)O [Leucine]	B. subtilis	E. coli, S. typhimurium	–
CC(=O)O [Acetate]	C. vinosum	E. coli, S. typhimurium	–
CCO [Eth20%, Ethanol]	–	–	movement of bacteria over time ([4]; 50% ethanol chemorepellent gradient, FIG. 4B/4C): clearly seen moving away from the ethanol; state of bacteria next to the maximum concentration of ethanol ([4]; 50% ethanol chemorepellent in horizontal channel, FIG. 4B): non-motile and putatively dead; E: extraction efficiency ([5]; 25 min): 76.4% + −8%; E: extraction efficiency ([5]; 30 min): 87.9% + −7%; E: extraction efficiency ([6]; Meat diluted 1:1): 77.60%; E: extraction efficiency ([6]; Meat diluted 1:2): 109.80%; E: extraction efficiency ([6]; Meat diluted 1:3): 57.00%
[H+] [H^+]	R. sphaeroids	E. coli, C. vinosum	–
